# Paper PMC5218480 (PLoS ONE, 2017)
# Tested on: MV-4-11 cells
# Assay: Gene expression microarray analysis (Affymetrix PrimeView) and GSEA
# Type: cell-based, human
# Design: RFU PODN (11730768_x_at) / Fold change /veh PODN (11730768_x_at) / RFU LINC00158 (11744669_a_at) / Fold change /veh LINC00158 (11744669_a_at) / RFU DUSP10 (11751237_a_at) / Fold change /veh DUSP10 (11751237_a_at) / RFU ID3 (11757404_x_at) / Fold change /veh ID3 (11757404_x_at) / RFU PLEKHG5 (11737974_s_at) / Fold change /veh PLEKHG5 (11737974_s_at) / RFU LRRC4B (11730491_at) / Fold change /veh LRRC4B (11730491_at) / RFU GIMAP4 (11747438_a_at) / Fold change /veh GIMAP4 (11747438_a_at) / RFU KRT8 (11758183_x_at) / Fold change /veh KRT8 (11758183_x_at) / RFU CNN1 (11734310_a_at) / Fold change /veh CNN1 (11734310_a_at) / RFU VPS37D (11726825_at) / Fold change /veh VPS37D (11726825_at) / RFU C10orf10 (11716522_x_at) / Fold change /veh C10orf10 (11716522_x_at) / RFU KIR2DL2 /// KIR2DL4 /// KIR2DL5A /// KIR2DL5B /// KIR2DS1 /// KIR2DS2 /// KIR2DS3 /// KIR2DS4 /// KIR3DL3 /// KIR3DL3 /// KIR3DS1 (11738374_at) / Fold change /veh KIR2DL2 /// KIR2DL4 /// KIR2DL5A /// KIR2DL5B /// KIR2DS1 /// KIR2DS2 /// KIR2DS3 /// KIR2DS4 /// KIR3DL3 /// KIR3DL3 /// KIR3DS1 (11738374_at) / RFU C1QL1 (11718748_at) / Fold change /veh C1QL1 (11718748_at) / RFU TMPRSS4 (11747572_a_at) / Fold change /veh TMPRSS4 (11747572_a_at) / RFU HAMP (11756126_x_at) / Fold change /veh HAMP (11756126_x_at) / RFU RNFT2 (11725882_a_at) / Fold change /veh RNFT2 (11725882_a_at) / RFU NR4A2 (11747474_a_at) / Fold change /veh NR4A2 (11747474_a_at) / RFU ABCC12 (11746883_a_at) / Fold change /veh ABCC12 (11746883_a_at) / RFU TMEM136 (11760407_x_at) / Fold change /veh TMEM136 (11760407_x_at) / RFU CLDN22 /// WWC2 (11732394_at) / Fold change /veh CLDN22 /// WWC2 (11732394_at) / RFU HLA-DPB1 (11760878_x_at) / Fold change /veh HLA-DPB1 (11760878_x_at) / RFU SPINT1 (11716480_a_at) / Fold change /veh SPINT1 (11716480_a_at) / RFU GAP43 (11754022_s_at) / Fold change /veh GAP43 (11754022_s_at) / RFU A4GNT (11735810_at) / Fold change /veh A4GNT (11735810_at) / RFU PRB3 (11715151_x_at) / Fold change /veh PRB3 (11715151_x_at) / RFU TUBB4B (11761932_at) / Fold change /veh TUBB4B (11761932_at) / RFU CAPN14 (11732068_a_at) / Fold change /veh CAPN14 (11732068_a_at) / RFU TMCC2 (11721928_a_at) / Fold change /veh TMCC2 (11721928_a_at) / RFU IRGQ (11745062_a_at) / Fold change /veh IRGQ (11745062_a_at) / RFU FAM174B (11720279_a_at) / Fold change /veh FAM174B (11720279_a_at) / RFU TMPRSS4 (11748680_a_at) / Fold change /veh TMPRSS4 (11748680_a_at) / RFU FAM212B (11763350_a_at) / Fold change /veh FAM212B (11763350_a_at) / RFU PLEKHG5 (11743358_a_at) / Fold change /veh PLEKHG5 (11743358_a_at) / RFU ZSCAN30 (11745921_a_at) / Fold change /veh ZSCAN30 (11745921_a_at) / RFU CMKLR1 (11741424_a_at) / Fold change /veh CMKLR1 (11741424_a_at) / RFU LOC101060620 /// MAPK8IP1 (11723275_at) / Fold change /veh LOC101060620 /// MAPK8IP1 (11723275_at) / RFU SPTSSB (11747773_x_at) / Fold change /veh SPTSSB (11747773_x_at) / RFU PRSS12 (11739890_at) / Fold change /veh PRSS12 (11739890_at) / RFU BIN1 (11741810_x_at) / Fold change /veh BIN1 (11741810_x_at) / RFU WNT11 (11732464_a_at) / Fold change /veh WNT11 (11732464_a_at) / RFU C10orf10 (11716521_a_at) / Fold change /veh C10orf10 (11716521_a_at) / RFU C5orf56 (11738089_at) / Fold change /veh C5orf56 (11738089_at) / RFU CYB561 (11721691_x_at) / Fold change /veh CYB561 (11721691_x_at) / RFU ANKRD19P (11752326_a_at) / Fold change /veh ANKRD19P (11752326_a_at) / RFU OR2T12 /// OR2T33 /// OR2T8 (11738714_s_at) / Fold change /veh OR2T12 /// OR2T33 /// OR2T8 (11738714_s_at) / RFU VCAN (11748164_a_at) / Fold change /veh VCAN (11748164_a_at) / RFU JSRP1 (11732532_at) / Fold change /veh JSRP1 (11732532_at) / RFU KRTAP10-11 (11738290_x_at) / Fold change /veh KRTAP10-11 (11738290_x_at) / RFU MYO3A (11730013_a_at) / Fold change /veh MYO3A (11730013_a_at) / RFU EBF3 (11725865_a_at) / Fold change /veh EBF3 (11725865_a_at) / RFU CAMK2N1 (11719241_x_at) / Fold change /veh CAMK2N1 (11719241_x_at) / RFU C5orf56 (11738088_a_at) / Fold change /veh C5orf56 (11738088_a_at) / RFU OLFML3 (11715873_a_at) / Fold change /veh OLFML3 (11715873_a_at) / RFU LOC100653217 /// NTM (11731650_a_at) / Fold change /veh LOC100653217 /// NTM (11731650_a_at) / RFU MAPK11 (11762145_a_at) / Fold change /veh MAPK11 (11762145_a_at) / RFU FIZ1 (11724087_x_at) / Fold change /veh FIZ1 (11724087_x_at) / RFU OASL (11726364_x_at) / Fold change /veh OASL (11726364_x_at) / RFU SOX15 (11748057_x_at) / Fold change /veh SOX15 (11748057_x_at) / RFU CD79A (11719716_a_at) / Fold change /veh CD79A (11719716_a_at) / RFU HIST1H1D (11736915_at) / Fold change /veh HIST1H1D (11736915_at) / RFU CASKIN2 (11723855_a_at) / Fold change /veh CASKIN2 (11723855_a_at) / RFU LOC730098 (11760151_x_at) / Fold change /veh LOC730098 (11760151_x_at) / RFU OR4N2 (11742367_at) / Fold change /veh OR4N2 (11742367_at) / RFU PRRT2 (11749266_a_at) / Fold change /veh PRRT2 (11749266_a_at) / RFU SNX32 (11753110_a_at) / Fold change /veh SNX32 (11753110_a_at) / RFU CDHR5 (11726645_a_at) / Fold change /veh CDHR5 (11726645_a_at) / RFU RCAN1 (11760418_a_at) / Fold change /veh RCAN1 (11760418_a_at) / RFU FAM167A (11723789_a_at) / Fold change /veh FAM167A (11723789_a_at) / RFU FAM26E (11764081_at) / Fold change /veh FAM26E (11764081_at) / RFU ISYNA1 (11749810_s_at) / Fold change /veh ISYNA1 (11749810_s_at) / RFU ACY1 (11761880_at) / Fold change /veh ACY1 (11761880_at) / RFU 11764098_at / Fold change /veh 11764098_at / RFU SAMD14 (11745864_x_at) / Fold change /veh SAMD14 (11745864_x_at) / RFU NPB (11741838_a_at) / Fold change /veh NPB (11741838_a_at) / RFU TMPRSS6 (11731388_a_at) / Fold change /veh TMPRSS6 (11731388_a_at) / RFU KRTAP10-2 (11738614_at) / Fold change /veh KRTAP10-2 (11738614_at) / RFU ARHGAP8 /// PRR5-ARHGAP8 (11727945_x_at) / Fold change /veh ARHGAP8 /// PRR5-ARHGAP8 (11727945_x_at) / RFU KRTAP5-7 /// NADSYN1 (11734609_at) / Fold change /veh KRTAP5-7 /// NADSYN1 (11734609_at) / RFU RASL12 (11751679_a_at) / Fold change /veh RASL12 (11751679_a_at) / RFU CDKN2B (11736163_a_at) / Fold change /veh CDKN2B (11736163_a_at) / RFU PRF1 (11729649_at) / Fold change /veh PRF1 (11729649_at) / RFU, ZNF638 /// ZNF638-IT1 / Fold change vs veh, ZNF638 /// ZNF638-IT1 / RFU, PANK3 / Fold change vs veh, PANK3 / RFU, SH3YL1 / Fold change vs veh, SH3YL1 / RFU, ZEB2 / Fold change vs veh, ZEB2 / RFU, NRIP1 / Fold change vs veh, NRIP1 / RFU, PTTG1IP / Fold change vs veh, PTTG1IP / RFU, CAPN2 / Fold change vs veh, CAPN2 / RFU, MED14 / Fold change vs veh, MED14 / RFU, SNORA58 / Fold change vs veh, SNORA58 / RFU, C1orf63 / Fold change vs veh, C1orf63 / RFU, LRRFIP1 / Fold change vs veh, LRRFIP1 / RFU, NDUFAF7 / Fold change vs veh, NDUFAF7 / RFU, SLC12A2 / Fold change vs veh, SLC12A2 / RFU, IBTK / Fold change vs veh, IBTK / RFU, ESF1 / Fold change vs veh, ESF1 / Fold change vs veh, TMEM50B / RFU, TAOK1 / Fold change vs veh, TAOK1 / RFU, ACBD3 / Fold change vs veh, ACBD3 / RFU, TMA16 / Fold change vs veh, TMA16 / RFU, RWDD3 / Fold change vs veh, RWDD3 / RFU, BCAT1 / Fold change vs veh, BCAT1 / RFU, EDEM3 / Fold change vs veh, EDEM3 / RFU, TMEM33 / Fold change vs veh, TMEM33 / RFU, WDR75 / Fold change vs veh, WDR75 / RFU, AHCTF1 / Fold change vs veh, AHCTF1 / RFU, TFRC / Fold change vs veh, TFRC / RFU, ZDHHC17 / Fold change vs veh, ZDHHC17 / RFU, NOM1 / Fold change vs veh, NOM1 / RFU, ARL8B / Fold change vs veh, ARL8B / RFU, ZBTB11 / Fold change vs veh, ZBTB11 / RFU, TAMM41 / Fold change vs veh, TAMM41 / RFU, KIAA1704 /// LOC100996395 / Fold change vs veh, KIAA1704 /// LOC100996395 / RFU, ING1 / Fold change vs veh, ING1 / RFU, TRMT61B / Fold change vs veh, TRMT61B / RFU, FUBP3 / Fold change vs veh, FUBP3 / RFU, TP53 / Fold change vs veh, TP53 / RFU, TNKS2 / Fold change vs veh, TNKS2 / RFU, ZFP14 / Fold change vs veh, ZFP14 / RFU, ACTR2 / Fold change vs veh, ACTR2 / RFU, PPP3R1 / Fold change vs veh, PPP3R1 / RFU, PIK3R1 / Fold change vs veh, PIK3R1 / RFU, HNRNPA1 / Fold change vs veh, HNRNPA1 / RFU, RNF170 / Fold change vs veh, RNF170 / RFU, ZNF28 / Fold change vs veh, ZNF28 / RFU, RNGTT / Fold change vs veh, RNGTT / RFU, OGT / Fold change vs veh, OGT / RFU, BRD1 / Fold change vs veh, BRD1 / RFU, MARS / Fold change vs veh, MARS / RFU, ZNF655 / Fold change vs veh, ZNF655 / RFU, FAHD1 / Fold change vs veh, FAHD1 / RFU, BDP1 / Fold change vs veh, BDP1 / RFU, LRRCC1 / Fold change vs veh, LRRCC1 / RFU, ARID1A / Fold change vs veh, ARID1A / RFU, ZNF146 / Fold change vs veh, ZNF146 / RFU, ZNF330 / Fold change vs veh, ZNF330 / RFU, GPN3 / Fold change vs veh, GPN3 / RFU, C9orf123 / Fold change vs veh, C9orf123 / RFU, N4BP2L2 / Fold change vs veh, N4BP2L2 / RFU, ARFIP1 / Fold change vs veh, ARFIP1 / RFU, FAM179B / Fold change vs veh, FAM179B / RFU, BCL10 / Fold change vs veh, BCL10 / RFU, UHRF1BP1L / Fold change vs veh, UHRF1BP1L / RFU, BET1 / Fold change vs veh, BET1 / RFU, CNOT2 / Fold change vs veh, CNOT2 / RFU, ZNF268 / Fold change vs veh, ZNF268 / Fold change vs veh, ZNF507 / RFU, DGCR2 / Fold change vs veh, DGCR2 / RFU, WDSUB1 / Fold change vs veh, WDSUB1 / Fold change vs veh, HSP90B1 /// MIR3652 / RFU, ADSS / Fold change vs veh, ADSS / RFU, GK / Fold change vs veh, GK / RFU, ZNF148 / Fold change vs veh, ZNF148 / RFU, TAF9 / Fold change vs veh, TAF9 / RFU, SLC1A5 / Fold change vs veh, SLC1A5 / RFU, SLMO2 / Fold change vs veh, SLMO2 / RFU, ABCC4 / Fold change vs veh, ABCC4 / RFU, LOC101060439 /// RAP1B / Fold change vs veh, LOC101060439 /// RAP1B / RFU, RFX7 / Fold change vs veh, RFX7 / RFU, GTPBP10 / Fold change vs veh, GTPBP10 / RFU, CNEP1R1 / Fold change vs veh, CNEP1R1 / RFU, BIVM-ERCC5 /// ERCC5 / Fold change vs veh, BIVM-ERCC5 /// ERCC5 / RFU, ILF3 / Fold change vs veh, ILF3 / RFU 11762660_at / Fold change /veh 11762660_at / RFU VCAN (11757783_s_at) / Fold change /veh VCAN (11757783_s_at) / RFU DDX43 (11728927_at) / Fold change /veh DDX43 (11728927_at) / RFU KRT8 (11758188_x_at) / Fold change /veh KRT8 (11758188_x_at) / RFU NKD1 (11759106_at) / Fold change /veh NKD1 (11759106_at) / RFU SRD5A1 (11742802_a_at) / Fold change /veh SRD5A1 (11742802_a_at) / RFU TPSAB1 /// TPSB2 (11721975_s_at) / Fold change /veh TPSAB1 /// TPSB2 (11721975_s_at) / RFU GSTM3 (11746129_a_at) / Fold change /veh GSTM3 (11746129_a_at) / RFU IL23R (11737362_x_at) / Fold change /veh IL23R (11737362_x_at) / RFU TMEM51 (11727254_a_at) / Fold change /veh TMEM51 (11727254_a_at) / RFU PIWIL2 (11732686_x_at) / Fold change /veh PIWIL2 (11732686_x_at) / RFU ORM1 (11744905_x_at) / Fold change /veh ORM1 (11744905_x_at) / RFU CCDC152 (11743942_at) / Fold change /veh CCDC152 (11743942_at) / RFU ECM1 (11717891_a_at) / Fold change /veh ECM1 (11717891_a_at) / RFU IL23R (11748794_a_at) / Fold change /veh IL23R (11748794_a_at) / RFU TNFAIP8L3 (11732012_x_at) / Fold change /veh TNFAIP8L3 (11732012_x_at) / RFU MBOAT4 (11741988_at) / Fold change /veh MBOAT4 (11741988_at) / RFU 11764193_at / Fold change /veh 11764193_at / RFU TMEM53 (11763286_at) / Fold change /veh TMEM53 (11763286_at) / RFU MAGEB2 (11727129_at) / Fold change /veh MAGEB2 (11727129_at) / RFU TMEM200A (11744735_a_at) / Fold change /veh TMEM200A (11744735_a_at) / RFU CCDC152 (11751479_a_at) / Fold change /veh CCDC152 (11751479_a_at) / RFU FAM211A (11726209_a_at) / Fold change /veh FAM211A (11726209_a_at) / RFU RGS16 (11746705_a_at) / Fold change /veh RGS16 (11746705_a_at) / RFU VCAN (11755009_s_at) / Fold change /veh VCAN (11755009_s_at) / RFU RHOB (11743442_s_at) / Fold change /veh RHOB (11743442_s_at) / RFU RGS16 (11720943_a_at) / Fold change /veh RGS16 (11720943_a_at) / RFU RGS16 (11720944_at) / Fold change /veh RGS16 (11720944_at) / RFU, VPS4B / Fold change vs veh, VPS4B / RFU, CREB1 / Fold change vs veh, CREB1 / RFU, DNAJC13 / Fold change vs veh, DNAJC13 / RFU, GNAQ / Fold change vs veh, GNAQ / RFU, CDK5R1 / Fold change vs veh, CDK5R1 / RFU, ZRANB3 / Fold change vs veh, ZRANB3 / RFU, CUL4A / Fold change vs veh, CUL4A / RFU, CCNY / Fold change vs veh, CCNY / RFU, UFL1 / Fold change vs veh, UFL1 / RFU, COG3 / Fold change vs veh, COG3 / RFU, DIAPH2 / Fold change vs veh, DIAPH2 / RFU, SKA2 / Fold change vs veh, SKA2 / RFU, AFF3 / Fold change vs veh, AFF3 / RFU, LMF1 / Fold change vs veh, LMF1 / RFU, IPO11 / Fold change vs veh, IPO11 / RFU, DFFB / Fold change vs veh, DFFB / RFU, FOXP1 / Fold change vs veh, FOXP1 / RFU, CARD8 / Fold change vs veh, CARD8 / RFU, STRN3 / Fold change vs veh, STRN3 / RFU, ADK / Fold change vs veh, ADK / RFU, RASSF2 / Fold change vs veh, RASSF2 / RFU, WIPF1 / Fold change vs veh, WIPF1 / RFU, LARP1B / Fold change vs veh, LARP1B / RFU, RASA1 / Fold change vs veh, RASA1 / RFU, RB1 / Fold change vs veh, RB1 / RFU, PPFIA1 / Fold change vs veh, PPFIA1 / RFU, MAT2A / Fold change vs veh, MAT2A / RFU, CCT5 / Fold change vs veh, CCT5 / RFU, WDR92 / Fold change vs veh, WDR92 / RFU, CUX1 / Fold change vs veh, CUX1 / RFU, TTC7A / Fold change vs veh, TTC7A / RFU, TMEM135 / Fold change vs veh, TMEM135 / RFU, DEPTOR / Fold change vs veh, DEPTOR / RFU, CPM / Fold change vs veh, CPM / RFU, DNAJB6 / Fold change vs veh, DNAJB6 / RFU, CACNA2D3 / Fold change vs veh, CACNA2D3 / RFU, DTX4 / Fold change vs veh, DTX4 / RFU, TFCP2 / Fold change vs veh, TFCP2 / RFU, GMCL1 /// GMCL1P1 / Fold change vs veh, GMCL1 /// GMCL1P1 / RFU, AEBP2 / Fold change vs veh, AEBP2 / RFU, SNHG1 /// SNORD22 /// SNORD25 /// SNORD26 /// SNORD27 /// SNORD28 /// SNORD29 /// SNORD31 / Fold change vs veh, SNHG1 /// SNORD22 /// SNORD25 /// SNORD26 /// SNORD27 /// SNORD28 /// SNORD29 /// SNORD31 / Fold change (Aza/veh), C12orf56 (ProbeSet 11735607_a_at) / Fold change (ACY-1035/veh), C12orf56 (ProbeSet 11735607_a_at) / Fold change (Aza/veh), FGFR1OP (ProbeSet 11751329_s_at) / Fold change (ACY-1035/veh), FGFR1OP (ProbeSet 11751329_s_at) / Fold change (Aza/veh), VPS36 (ProbeSet 11739960_a_at) / Fold change (ACY-1035/veh), VPS36 (ProbeSet 11739960_a_at) / RFU SYPL1 (11715823_x_at) / Fold change /veh SYPL1 (11715823_x_at) / RFU IGFBP7 (11715501_s_at) / Fold change /veh IGFBP7 (11715501_s_at) / RFU REEP3 (11722064_at) / Fold change /veh REEP3 (11722064_at) / RFU IGLL1 (11728026_x_at) / Fold change /veh IGLL1 (11728026_x_at): dose or concentration left out as unconfirmed
# Settings: ProbeSet 11739696_s_at; LIST D
structure (smiles),measurement,value
Nc1ccc(-c2cccs2)cc1NC(=O)c1ccc2c(c1)cc(C1CC1)n2CCN1CCOCC1 [ACY-1035],"RFU, AFF3",669.34 RFU
